“And” between values parts separate entries of the source, which are not always exact repeats. Equal entries are not always repeated. Where two headings read alike, the source gives them in different places.
Legend:
RPMI 8226 [1] = assay: cells; settings: 1% or 10% FBS
Protocol: RPMI 8226 (CCL-155), HT-29 (HTB-38), and B16-F10 (CRL-6475) cells were purchased from ATCC. RPMI 8226 cells were maintained in RPMI 1640 media supplemented with 10% (v/v) FBS, 2 mM L-glutamine, 1 mM sodium pyruvate and Penicillin/Streptomycin at 100 IU/ml and 100 μg/ml, respectively. HT-29 cells were maintained in McCoys 5A supplemented with 10% (v/v) FBS, 2 mM L-glutamine, 1 mM sodium pyruvate, 1% (v/v) non-essential amino acids, 10 mM HEPES and Penicillin/Streptomycin at 100 IU/ml and 100 μg/ml, respectively. B16-F10 cells were maintained in DMEM supplemented with 10% (v/v) FBS, 2 mM L-glutamine, 10 mM HEPES and Penicillin/Streptomycin at 100 IU/ml and 100 μg/ml, respectively.
RPMI 8226 cells were seeded at 2×10^4 cells/well in 90 μl RPMI media containing 10% (v/v) FBS or 1% (v/v) FBS into 96 well black-walled, clear-bottom tissue culture plates. […] Formulae II-16, II-17 and Formula II-18 were serially diluted in media containing 1% or 10% FBS and added in triplicate to the test wells. […] The final concentration of Formula II-18 ranged from 2 μM to 630 pM.

[2] = target: T1, chymotrypsin-like activity of 20S proteasomes in RPMI 8226 cells (Homo sapiens, UniProt P28074); assay: Chymotrypsin-like activity of 20S proteasomes in lysates of treated RPMI 8226 cells; assay type: cell-based; settings: RPMI-8226, read-out: % inhibition of the chymotrypsin-like activity of 20S proteasomes in RPMI 8226 cell lysates
T1 construct: added to 2.5×10^5/ml RMPI 8226 cells; endogenous in cells; host or cells: RPMI 8226 (ATCC CCL-155)
T1 sequence (P28074 60-263): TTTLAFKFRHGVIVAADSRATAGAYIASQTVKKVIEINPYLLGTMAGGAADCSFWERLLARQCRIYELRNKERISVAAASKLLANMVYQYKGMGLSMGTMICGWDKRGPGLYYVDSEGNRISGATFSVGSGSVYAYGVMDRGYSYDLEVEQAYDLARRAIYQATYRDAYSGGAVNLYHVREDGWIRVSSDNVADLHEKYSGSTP
Protocol: RPMI 8226 (ATCC, CCL-155), the human multiple myeloma cell line, was cultured in RPMI 1640 medium supplemented with 2 mM L-glutamine, 100 units/ml penicillin, 100 μg/ml streptomycin, 1 mM sodium pyruvate and 10% heat inactivated fetal bovine serum at 37° C., 5% CO2 and 95% humidified air. […] DMSO was used as the vehicle control at a final concentration of 0.1%. Following 1 hr incubation of RMPI 8226 cells with the compounds, the cells were pelleted by centrifugation at 2,000 rpm for 10 sec at room temperature and washed 3× with ice-cold 1× Dulbecco's Phosphate-Buffered Saline (DPBS, Mediatech, Herndon, Va.). DPBS washed cells were lysed on ice for 15 min in lysis buffer (20 mM HEPES, 0.5 mM EDTA, 0.05% Triton X-100, pH 7.3) supplemented with protease inhibitor cocktail (Roche Diagnostics, Indianapolis, Ind.). Cell debris was pelleted by centrifugation at 14,000 rpm for 10 min, 4° C. and supernatants (=cell lysates) were transferred to a new tube. Protein concentration was determined by the BCA protein assay kit (Pierce Biotechnology, Rockford, Ill.). […] The released coumarin (AMC) was measured fluorometrically by using λex=390 nm and λem=460 nm. The assay was performed in a microtiter plate (Corning 3904) and followed kinetically with measurements every five minutes for 2 hr. The total amount of protein used for each assay was 20 μg. The final concentration of Suc-LLVY-AMC and DMSO was 20 μM and 0.2%, respectively.

[3] = target: T2, chymotrypsin-like activity of 20S proteasomes in PC-3 cells (Homo sapiens, UniProt P28074); assay: Chymotrypsin-like activity of 20S proteasomes in lysates of treated PC-3 cells; assay type: cell-based; settings: 100 nM, 1 hr incubation
T2 construct: endogenous in cells; host or cells: PC-3 (ATCC CRL-1435)
Protocol: PC-3 (ATCC, CRL-1435), the human prostate cancer cell line, was cultured in F12K medium supplemented with 2 mM L-glutamine, 100 units/ml penicillin, 100 μg/ml streptomycin and 10% heat inactivated fetal bovine serum at 37° C., 5% CO2 and 95% humidified air. […] DMSO was used as the vehicle control at a final concentration of 0.1%. Following 1 hr incubation of PC-3 cells with the compounds, the cells were washed 3× with ice-cold 1× Dulbecco's Phosphate-Buffered Saline (DPBS, Mediatech, Herndon, Va.). […] Cell debris was pelleted by centrifugation at 14,000 rpm for 10 min, 4° C. and supernatants (=cell lysates) were transferred to a new tube. Protein concentration was determined by the BCA protein assay kit (Pierce Biotechnology, Rockford, Ill.). […] The released coumarin (AMC) was measured fluorometrically by using λex=390 nm and λem=460 nm. The assay was performed in a microtiter plate (Corning 3904) and followed kinetically with measurements every five minutes for 2 hr. The total amount of protein used for each assay was 20 μg. The final concentration of Suc-LLVY-AMC and DMSO was 20 μM and 0.2%, respectively. Results are presented as the percent inhibition of the 20S proteasome chymotrypsin-like activity relative to the DMSO control.

[4] = target: T3, trypsin-like activity of purified rabbit muscle 20S proteasome (Oryctolagus cuniculus, UniProt G1SWK8); assay: biochemical
T3 sequence (G1SWK8 1-271): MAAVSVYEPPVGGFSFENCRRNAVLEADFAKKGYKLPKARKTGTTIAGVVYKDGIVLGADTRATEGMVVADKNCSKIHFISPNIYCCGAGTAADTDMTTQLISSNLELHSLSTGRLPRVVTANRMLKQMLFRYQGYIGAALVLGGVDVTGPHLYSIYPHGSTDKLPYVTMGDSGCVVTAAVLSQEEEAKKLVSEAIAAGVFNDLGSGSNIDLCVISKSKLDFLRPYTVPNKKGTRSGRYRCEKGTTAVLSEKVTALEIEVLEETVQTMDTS

RPMI 8226 [5] = assay: Cell growth inhibition (resazurin), RPMI 8226; settings: Homo sapiens, RPMI-8226, 48 h, read-out: RPMI 8226 EC50, Table 2; 48 hours drug exposure; mean ± SD where n≥3
U266 [6] = assay: Cell growth inhibition (resazurin), U266; settings: 48 hours drug exposure
[7] = target: T4, chymotrypsin-like activity of purified rabbit muscle 20S proteasome (Oryctolagus cuniculus, UniProt G1T4Q9); assay: In vitro inhibition of 20S proteasome chymotrypsin-like activity (suc-LLVY-AMC)
T4 sequence (G1T4Q9 1-263): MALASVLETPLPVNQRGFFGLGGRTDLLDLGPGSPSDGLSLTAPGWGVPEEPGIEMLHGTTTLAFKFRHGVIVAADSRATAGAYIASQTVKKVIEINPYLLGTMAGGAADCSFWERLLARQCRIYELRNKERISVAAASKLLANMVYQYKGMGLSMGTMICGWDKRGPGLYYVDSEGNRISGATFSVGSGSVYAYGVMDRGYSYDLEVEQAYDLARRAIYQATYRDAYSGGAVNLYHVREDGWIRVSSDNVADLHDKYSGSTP

U266 [8] = tested on: U266
[9] = target: T5, caspase-like activity of purified rabbit muscle 20S proteasome (Oryctolagus cuniculus, UniProt A0A5F9DQW2); assay: In vitro inhibition of 20S proteasome caspase-like activity (Z-LLE-AMC); settings: EC50 Caspase-like, Table 6, values in μM
T5 sequence (A0A5F9DQW2 1-212): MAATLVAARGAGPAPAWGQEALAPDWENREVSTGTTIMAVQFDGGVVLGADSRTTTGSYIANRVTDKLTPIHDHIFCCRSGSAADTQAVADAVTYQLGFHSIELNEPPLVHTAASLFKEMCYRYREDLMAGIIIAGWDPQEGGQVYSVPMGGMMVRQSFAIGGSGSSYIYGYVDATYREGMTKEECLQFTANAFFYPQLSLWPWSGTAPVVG

HL-60/MX2 = assay: Cell growth inhibition (resazurin), multidrug resistant HL-60/MX2; settings: ratio of EC50 values (HL-60/MX2:HL-60)
Protocol: Concentrations ranging from 6.32 μM to 2 nM were tested for II-2 and II-4.
HL-60/MX2 is a multidrug resistant tumor cell line derived from the human promyelocytic leukemia cell line, HL-60 and expresses reduced topoisomerase II activity. […] Mitoxantrone, the topoisomerase II targeting agent was included as a control.

MES-SA/Dx5 = assay: Cell growth inhibition (resazurin), multidrug resistant MES-SA/Dx5; assay type: cell-based, human; settings: for EC50: Table 3, 48 hours drug exposure

In the case of `CC[C@H]1C(=O)N[C@@]2([C@@H](O)[C@@H]3C=CCCC3)C(=O)O[C@@]12C` [Formula II-17], the “cytotoxicity against RPMI 8226 in media containing 1% or 10% FBS, in words” value (RPMI 8226 [1]) is reported as “cytotoxic”, the inhibition at 0.001 µM [2] is reported as 6 ± 6% and the inhibition at 0.005 µM [2] is reported as 10 ± 5%. It also gave an inhibition at 0.01 µM [2] of 6 ± 6%, an inhibition at 0.05 µM [2] of 26 ± 5% and an inhibition at 0.1 µM [2] of 30 ± 4%. It also gave an inhibition at 0.5 µM [2] of 39 ± 3%, an inhibition at 1 µM [2] of 46 ± 4% and an inhibition at 10 µM [2] of 65 ± 5%. For the same molecule, the “% inhibition of the chymotrypsin-like activity of 20S proteasomes in PC-3 cell lysates” value [3] was 26% and the EC50 [4] was 0.573 µM and 0.602 µM.

`C[C@@]12OC(=O)[C@]1([C@@H](O)[C@H]1CCC[C@H](Cl)[C@H]1O)NC(=O)[C@@H]2CCCl` [Formula IV-3C] was tested, and the EC50 (RPMI 8226 [5]) was greater than 20 µM, the EC50 (U266 [6]; Homo sapiens, U-266, 48 h, read-out: U266 EC50, Table 2) was 7.76 µM and the EC50 (U266 [6]; read-out: U266 EC50, Table 2) was 8.29 µM. For the same molecule, the EC50 ([7]; EC50 Chymotrypsin-like, Table 6, values in μM) was 4.9 µM and 10.6 µM, the EC50 ([7]; EC50 values, chymotrypsin-like activity, range or bound stated in text, summary of Table 6) was 1.4 to 10.6 µM and the “cytotoxicity against U266, in words” value (U266 [8]) was “cytotoxic”. It also gave an EC50 [9] greater than 20 µM and an EC50 [4] greater than 20 µM.

In the case of `O=C1c2c(O)ccc(O)c2C(=O)c2c(NCCNCCO)ccc(NCCNCCO)c21` [Mitoxantrone, reference compound], the Fold change (HL-60/MX2) is reported as roughly 30 fold.

`CC(C)[C@H](O)[C@@]12NC(=O)[C@H](C)[C@@H]1OC2=O` [Omuralide, reference compound] showed an inhibition at 0.001 µM ([2]; 1 nM, 1 hr incubation, mean ± SD, n = 3) of 5 ± 9%, an inhibition at 0.005 µM ([2]; 5 nM, 1 hr incubation, mean ± SD, n = 3) of 8 ± 9% and an inhibition at 0.05 µM ([2]; 50 nM, 1 hr incubation, mean ± SD, n = 3) of 17 ± 11%. For the same molecule, the inhibition at 0.1 µM ([2]; 100 nM, 1 hr incubation, mean ± SD, n = 3) was 32 ± 8%, the inhibition at 0.5 µM ([2]; 500 nM, 1 hr incubation, mean ± SD, n = 3) was 68 ± 11% and the “% inhibition of the chymotrypsin-like activity of 20S proteasomes in PC-3 cell lysates” value [3] was 36%. The inhibition at 0.1 µM ([3]; PC-3, read-out: % inhibition of the chymotrypsin-like activity of 20S proteasomes in PC-3 cell lysates) was 36%.

In the case of `CC(=O)O[C@H]1C(=O)[C@@]2(C)[C@H]([C@H](OC(=O)c3ccccc3)[C@]3(O)C[C@H](OC(=O)[C@H](O)[C@@H](NC(=O)c4ccccc4)c4ccccc4)C(C)=C1C3(C)C)[C@]1(OC(C)=O)CO[C@@H]1C[C@@H]2O` [Paclitaxel], the EC50 (MES-SA/Dx5; Homo sapiens, MES-SA/Dx5, 48 h) is reported as 2.93 µM, the EC50 (MES-SA/Dx5) is reported as 5.21 µM and the Fold change (MES-SA/Dx5; ratio of EC50 values (MES-SA/Dx5:MES-SA)) is reported as roughly 800 fold.

Reference: patent publication US7544814B2, “[3.2.0] Heterocyclic compounds and methods of using the same” (Nereus Pharmaceuticals, Inc., priority 2004, dated 2009)
